These results are taken from patent US12195804B2, “Treatment of squamous cell carcinoma” (Board of Regents, The University of Texas System, priority 2018, dated 2025).

The test deals with HNSCC cell lines. Description: CellTiter-Glo cell viability assay. Type of test: cell-based, human. Conditions: 0-200 nM, 72 hours. Here is the method:
Cell viability assay. […] A CellTiter-Glo luminescent cell viability assay (Promega, Madison, WI) was performed as described previously (Castel et al., 2016; Muellner et al., 2011). Inhibitory concentration (ICs) and area under the curve (AUC) values were calculated using the drexplorer R package with a best-fit dose-response model (Zumsteg et al., 2016). The combination indices were calculated using the Chou-Talalay method (Cal et al., 2017) in CalcuSyn (Biosoft, Cambridge, UK). We tested the reproducibility and robustness of the data generated using three quality control parameters as described previously (Bohnacker et al., 2017). These parameters were the concordance correlation coefficient, location shift, and maximum standard deviation between two biological replicates for three technical and two biological replicates. Based on heuristics from our previous screening studies in lung cancer (Bohnacker et al., 2017), the cut-offs for reproducibility were a concordance correlation coefficient greater than 0.8, a location shift less than 0.9, and a standard deviation less than 0.23 based on the normal mixture fit model. Experiments not satisfying these criteria were repeated. The replicate with the smallest experimental variation measured by the median of standard deviation was chosen as a representative of the replicates, and its IC values served as the final values for subsequent analysis.
Cell lines were classified as sensitive based on IC70 values less than the peak plasma concentration for each drug. To determine if cross-comparison of the PI3K/mTOR inhibitors as a class was feasible, their drug sensitivity patterns were compared with those of three cell cycle kinase inhibitors tested previously (Zhang et al., 2017). The PI3K/mTOR pathway inhibitors clustered separately from the cell cycle inhibitors (FIG. 12C).
(In general: Cellular ATP, detected with luciferase, serves as a proxy for viable cell number.)

Turning to `COc1ncc(-c2ccc3nccc(-c4ccnnc4)c3c2)cc1NS(=O)(=O)c1ccc(F)cc1F` [GSK2126458], the “cell viability, NOTCH1MUT and NOTCH1WT cell lines” value was “differential effects”.
